Data from patent US20210252104A1, “ANTIBACTERIAL PEPTIDE MONOMERS AND COMBINATIONS FOR CO-THERAPY” (ARREVUS, INC., priority 2018, published 2021).
Converted amounts (≈) assume the structure as drawn. Where two headings read alike, the source gives them in different places. Positions of bridges follow the written chain, without caps; N, C: chain ends. Non-standard residues stand in square brackets, D forms with d. Residues, ends and D or L forms follow the SMILES beside them. Chains are numbered I, II in the order given. *: point of attachment. X2 = CN(C)C(=N[C@@H](CCCNC(=N)N)C(=O)*)N(C)C; aThr = C[C@H](O)[C@H](N)C(=O)O; Ac6c = NC1(C(=O)O)CCCCC1; Dab = NCC[C@H](N)C(=O)O; Nva = CCC[C@H](N)C(=O)O; Pentanoyl = CCCCC(=O)*; Butyryl = CCCC(=O)*; NHNH2 = NN*

Legend:
K. pneumoniae K97/09 [1] = experiment: FIC checkerboard assay (combinations); assay type: cell-based; settings: for Effect of combining antimicrobials on MIC: K97/09, with imipenem or colistin
[2] = test system: A. baumannii strain (BAA-1605); experiment: FIC checkerboard assay (combinations); assay type: cell-based; settings: with imipenem (or colistin)
K. pneumoniae K97/09 [3] = test system: K. pneumoniae K97/09
[4] = test system: Burkholderia pseudomallei 1026b; assay type: in vivo; settings: for B. pseudomallei load in survivals (CFU/spleen) / total number of samples analyzed/samples with CFU > 10^8: day 62; for B. pseudomallei load in survivals (CFU/spleen): mean of samples with <10^8 CFU/spleen; for Number of deaths: every 6 h for 21 days, 10 mice, to day 62; for total number of samples analyzed/samples with CFU > 10^8: spleens
in vitro = settings: rat, H-4-II-E cells (ATCC CRL-1548)
[5] = test system: Acinetobacter baumannii BAA-1805 (MACI)
[6] = test system: A. baumannii strain (BAA-1605); experiment: microbe, parasite or virus in culture; assay type: cell-based

In the case of `CCC[C@H](NC(=O)[C@H](CCC(=O)O)NC(=O)[C@@H](N)[C@H](C)O)C(=O)N[C@H](C(=O)N[C@@H](C)C(=O)N[C@@H](CC(C)C)C(=O)N[C@@H](CO)C(=O)N[C@@H](CCCNC(=N)N)C(=O)NC1(C(N)=O)CCCCC1)C(C)C` [Allo-aca] (H-[aThr]E[Nva]VALSR[Ac6c]-NH2), the “Effect of combining antimicrobials on MIC” value (shortened to “Effect”) (K. pneumoniae K97/09 [1]) is reported as “failed to exert any improvement in the MIC values”, the “Effect” value [2] is reported as “failed to exert any improvement in the MIC values” and the MIC (K. pneumoniae K97/09 [3]; K97/09) is reported as > 256 µg/mL.

For `CC(C)(O/N=C(\C(=O)N[C@@H]1C(=O)N2C(C(=O)[O-])=C(C[n+]3ccccc3)CS[C@H]12)c1csc(N)n1)C(=O)O` [Ceftazidime], the “Median survival (days post-challenge)” value ([4]; Ceftazidime 150 mg/kg ip) was 56.5 days post-challenge, the “B. pseudomallei load in survivals (CFU/spleen)” value ([4]; Ceftazidime 150 mg/kg ip) was 2.6 × 10^5 CFU/spleen and the Number of deaths ([4]; Ceftazidime 150 mg/kg ip) was 6. For the same compound, the “total number of samples analyzed/samples with CFU > 10^8” value ([4]; Ceftazidime 150 mg/kg ip) was 4/1, the “Median survival (days post-challenge)” value ([4]; Ceftazidime 300 mg/kg ip) was “(>50% survival)” and the “B. pseudomallei load in survivals (CFU/spleen)” value ([4]; Ceftazidime 300 mg/kg ip) was 2.4 × 10^5 CFU/spleen. For the same compound, the Number of deaths ([4]; Ceftazidime 300 mg/kg ip) was 3, the “total number of samples analyzed/samples with CFU > 10^8” value ([4]; Ceftazidime 300 mg/kg ip) was 3/1 and the “Survival rate at the 62-day endpoint” value ([4]; ceftazidime monotherapy 150 mg/kg) was 40%. For the same compound, the “Survival rate at the 62-day endpoint” value ([4]; ceftazidime monotherapy 300 mg/kg) was 70%.

In the case of `CCCC(=O)N[C@@H](CCCNC(=N)N)C(=O)N1CCC[C@H]1C(=O)N[C@@H](CC(=O)O)C(=O)N[C@@H](CCCCN)C(=O)N1CCC[C@H]1C(=O)N[C@@H](CCCNC(=N)N)C(=O)N1CCC[C@H]1C(=O)N[C@@H](Cc1ccc(O)cc1)C(=O)N[C@@H](CC(C)C)C(=O)N1CCC[C@H]1C(=O)N[C@@H](CCCNC(=N)N)C(=O)N1CCC[C@H]1C(=O)N[C@@H](CCCNC(=N)N)C(=O)N1CCC[C@H]1C(=O)N1CCC[C@H]1C(=O)N[C@@H](CCCNC(=N)N)C(=O)N1CCC[C@H]1C(=O)N[C@H](C(=O)N[C@@H](CCCNC(=N)N)C(N)=O)C(C)C` [Example 3, Bu-RPDKPRPYLPRPRPPRPVR-NH2] (Butyryl-RPDKPRPYLPRPRPPRPVR-NH2), the MIC (K. Pneumoniae ATCC 13883) is reported as 2.2 ± 0.4 µM (≈ 5.32 µg/mL), the MIC (P. aeruginosa ATCC 47085) is reported as 96.3 ± 3.2 µM (≈ 233 µg/mL) and the MIC (A. Baumannii ATCC 19606) is reported as >100 µM. It also gave an MIC (E. Coli ATCC 29222) of 6.5 ± 2.6 µM (≈ 15.7 µg/mL).

For `CCCCC(=O)N[C@@H](CCCNC(=N)N)C(=O)N1CCC[C@H]1C(=O)N[C@@H](CC(=O)O)C(=O)N[C@@H](CCCCN)C(=O)N1CCC[C@H]1C(=O)N[C@@H](CCCNC(=N)N)C(=O)N1CCC[C@H]1C(=O)N[C@@H](Cc1ccc(O)cc1)C(=O)N[C@@H](CC(C)C)C(=O)N1CCC[C@H]1C(=O)N[C@@H](CCCNC(=N)N)C(=O)N1CCC[C@H]1C(=O)N[C@@H](CCCNC(=N)N)C(=O)N1CCC[C@H]1C(=O)N1CCC[C@H]1C(=O)N[C@@H](CCCNC(=N)N)C(=O)N1CCC[C@H]1C(=O)N[C@H](C(=O)N[C@@H](CCCNC(=N)N)C(N)=O)C(C)C` [Example 4, Va-RPDKPRPYLPRPRPPRPVR-NH2] (Pentanoyl-RPDKPRPYLPRPRPPRPVR-NH2), the MIC (K. Pneumoniae ATCC 13883) was 2.1 ± 0.0 µM (≈ 5.11 µg/mL), the MIC (P. aeruginosa ATCC 47085) was 82.0 ± 5.0 µM (≈ 200 µg/mL) and the MIC (A. Baumannii ATCC 19606) was >100 µM. It also gave an MIC (E. Coli ATCC 29222) of 5.6 ± 1.8 µM (≈ 13.6 µg/mL).

With `CC(C)C[C@H](NC(=O)[C@H](Cc1ccc(O)cc1)NC(=O)[C@@H]1CCCN1C(=O)[C@H](CCCNC(=N)N)NC(=O)[C@@H]1CCCN1C(=O)[C@H](CCCCN)NC(=O)[C@H](CC(=O)O)NC(=O)[C@@H]1CCCN1C(=O)[C@H](CCCNC(=N)N)N=C(N(C)C)N(C)C)C(=O)N1CCC[C@H]1C(=O)N[C@@H](CCCNC(=N)N)C(=O)N1CCC[C@H]1C(=O)N[C@@H](CCCNC(=N)N)C(=O)N1CCC[C@H]1C(=O)N1CCC[C@H]1C(=O)N[C@@H](CCCNC(=N)N)C(=O)N1CCC[C@H]1C(=O)N[C@H](C(=O)N[C@@H](CCCNC(=N)N)C(N)=O)C(C)C` [Example 5, Gu-RPDKPRPYLPRPRPPRPVR-NH2] (X2-PDKPRPYLPRPRPPRPVR-NH2; N-terminus assumed) the MIC (K. Pneumoniae ATCC 13883) was 1.5 ± 0.4 µM (≈ 3.67 µg/mL), the MIC (P. aeruginosa ATCC 47085) was 64.7 ± 2.1 µM (≈ 158 µg/mL) and the MIC (A. Baumannii ATCC 19606) was >100 µM. The MIC (E. Coli ATCC 29222) was 5.8 ± 2.2 µM (≈ 14.2 µg/mL).

With `CC(C)C[C@H](NC(=O)[C@H](Cc1ccc(O)cc1)NC(=O)[C@@H]1CCCN1C(=O)[C@H](CCCNC(=N)N)NC(=O)[C@@H]1CCCN1C(=O)[C@H](CCCCN)NC(=O)[C@H](CC(=O)O)NC(=O)[C@@H]1CCCN1C(=O)[C@H](CCCNC(=N)N)NC(=O)C1(N)CCCCC1)C(=O)N1CCC[C@H]1C(=O)N[C@@H](CCCNC(=N)N)C(=O)N1CCC[C@H]1C(=O)N[C@@H](CCCNC(=N)N)C(=O)N1CCC[C@H]1C(=O)N1CCC[C@H]1C(=O)N[C@@H](CCCNC(=N)N)C(=O)N1CCC[C@H]1C(=O)N[C@H](C(=O)N[C@@H](CCCNC(=N)N)C(=O)O)C(C)C` [Example 6, Chex-RPDKPRPYLPRPRPPRPVR-OH] (H-[Ac6c]RPDKPRPYLPRPRPPRPVR-OH) the MIC (K. Pneumoniae ATCC 13883) was 2.0 ± 0.1 µM (≈ 4.95 µg/mL), the MIC (P. aeruginosa ATCC 47085) was >100 µM and the MIC (A. Baumannii ATCC 19606) was >100 µM. It also gave an MIC (E. Coli ATCC 29222) of 6.7 ± 1.3 µM (≈ 16.6 µg/mL) and a CC50 (in vitro) of 48.1 ± 3.4 µM.

In the case of `CC(C)C[C@H](NC(=O)[C@H](Cc1ccc(O)cc1)NC(=O)[C@@H]1CCCN1C(=O)[C@H](CCCNC(=N)N)NC(=O)[C@@H]1CCCN1C(=O)[C@H](CCCCN)NC(=O)[C@H](CC(=O)O)NC(=O)[C@@H]1CCCN1C(=O)[C@H](CCCNC(=N)N)NC(=O)C1(N)CCCCC1)C(=O)N1CCC[C@H]1C(=O)N[C@@H](CCCNC(=N)N)C(=O)N1CCC[C@H]1C(=O)N[C@@H](CCCNC(=N)N)C(=O)N1CCC[C@H]1C(=O)N1CCC[C@H]1C(=O)N[C@@H](CCCNC(=N)N)C(=O)N1CCC[C@H]1C(=O)N[C@H](C(=O)N[C@@H](CCCNC(=N)N)C(=O)NN)C(C)C` [Example 7, Chex-RPDKPRPYLPRPRPPRPVR-NH-NH2] (H-[Ac6c]RPDKPRPYLPRPRPPRPVR-NHNH2; N-terminus assumed), the MIC (K. Pneumoniae ATCC 13883) is reported as 1.7 ± 0.1 µM (≈ 4.23 µg/mL), the MIC (P. aeruginosa ATCC 47085) is reported as 28.9 ± 2.7 µM (≈ 72 µg/mL) and the MIC (A. Baumannii ATCC 19606) is reported as 52.5 ± 9.5 µM (≈ 131 µg/mL). The MIC (E. Coli ATCC 29222) was 4.0 ± 1.5 µM (≈ 9.96 µg/mL).

For “Ac-RPDKPRPYLPRPRPPRPVR-NH2 [Example 2, Ac-RPDKPRPYLPRPRPPRPVR-NH2]”, the MIC (K. Pneumoniae ATCC 13883) was 2.0 ± 0.2 µM, the MIC (P. aeruginosa ATCC 47085) was >100 µM and the MIC (A. Baumannii ATCC 19606) was >100 µM. The MIC (E. Coli ATCC 29222) was 3.6 ± 0.1 µM.

In the case of “I: H-[Ac6c]RPDKPRPYLGRPRPPRPVR[Dab]-NH2 / II: H-[Ac6c]RPDKPRPYLGRPRPPRPVR (amide I:21-II:C) [Gly11, (H-Chex-Arg-Pro-Asp-Lys-Pro-Arg-Pro-Tyr-Leu-Gly-Arg-Pro-Arg-Pro-Pro-Arg-Pro-Val-Arg)2-Dab-NH2]”, the “Effect” value (K. pneumoniae K97/09 [1]) is reported as “failed to exert any improvement in the MIC values”, the “Effect” value [2] is reported as “failed to exert any improvement in the MIC values” and the “MACI MIC” value ([5]; Acinetobacter baumannii (MACI)) is reported as >256 µg/mL. The “KPC MIC” value (K. pneumoniae K97/09 [3]; K97/09) was >256 µg/mL.

With “I: H-[Ac6c]RPDKPRPYLPRPRPPRPVR[Dab]-NH2 / II: H-[Ac6c]RPDKPRPYLPRPRPPRPVR (amide I:21-II:C; C-terminus assumed) [Example A3-APO, (H-Chex-Arg-Pro-Asp-Lys-Pro-Arg-Pro-Tyr-Leu-Pro-Arg-Pro-Arg-Pro-Pro-Arg-Pro-Val-Arg)2-Dab]” the “MACI MIC” value ([5]; BAA-1805) was 32 to 64 µg/mL and the “KPC MIC” value (K. pneumoniae K97/09 [3]; K97/09) was 32 to 64 µg/mL.

With colistin the ΣFIC (K. pneumoniae K97/09 [1]) was 0.08, the MIC [6] was < 0.5 µg/mL and the “MACI MIC” value ([5]; Acinetobacter baumannii (MACI)) was <0.5 µg/mL. For the same compound, the “KPC MIC” value (K. pneumoniae K97/09 [3]) was 64 µg/mL and the MIC (K. pneumoniae K97/09 [3]) was 64 µg/mL.
